Molecular target: HCV RNA-dependent RNA polymerase NS5B (Δ21) (Hepatitis C virus genotype 1b, UniProt P26663)
Assay: Assay for HCV RNA-dependent RNA polymerase activity (SPA, [3H]-GTP incorporation)
Format: biochemical
Protocol: Assay for HCV RNA-dependent RNA Polymerase Activity
Inhibitory activity of the present compounds against HCV RNA-dependent RNA polymerase was assayed according to the methods disclosed in U.S. Patent Application U.S.2004/038993, content of which is incorporated herein by reference; and those described in Ferrari, E.; Wright-Minogue, J.; Fang, J. W. S.; Baroudy, B. M.; Lau, J. Y. N.; Hong, Z. J. Virol. 1999, 73, 1649.
Briefly, 50 μl reactions containing 20 mM HEPES (pH 7.3), 7.5 mM DTT, 20 units/ml RNasIN, 0.5 ug/ml biotinylated oligoG12, 5 μg/ml polyC, 5 μM GTP, 20 μCi/ml [^3H]-GTP, 10 mM MgCl2, 60 mM NaCl, 100 μg/ml BSA, and 50 nM NS5B (Δ21) were incubated at room temperature for three hours in 96-well plates with or without test compounds. Assay was terminated by the addition of 50 μl 10 mg/ml streptavidin-coated SPA beads supplemented with 100 mM EDTA, and the incorporation of labeled GTP determined by a TopCount Scintillation Counter. IC50 values were calculated from single experiments using 11 serial 2-fold dilutions (0.05–50 μM), and data were considered reliable only when the IC50 value of a positive internal control was within standard deviation range.

HCV RNA-dependent RNA polymerase NS5B (Δ21), sequence (P26663 2420-2989, stated change not applied): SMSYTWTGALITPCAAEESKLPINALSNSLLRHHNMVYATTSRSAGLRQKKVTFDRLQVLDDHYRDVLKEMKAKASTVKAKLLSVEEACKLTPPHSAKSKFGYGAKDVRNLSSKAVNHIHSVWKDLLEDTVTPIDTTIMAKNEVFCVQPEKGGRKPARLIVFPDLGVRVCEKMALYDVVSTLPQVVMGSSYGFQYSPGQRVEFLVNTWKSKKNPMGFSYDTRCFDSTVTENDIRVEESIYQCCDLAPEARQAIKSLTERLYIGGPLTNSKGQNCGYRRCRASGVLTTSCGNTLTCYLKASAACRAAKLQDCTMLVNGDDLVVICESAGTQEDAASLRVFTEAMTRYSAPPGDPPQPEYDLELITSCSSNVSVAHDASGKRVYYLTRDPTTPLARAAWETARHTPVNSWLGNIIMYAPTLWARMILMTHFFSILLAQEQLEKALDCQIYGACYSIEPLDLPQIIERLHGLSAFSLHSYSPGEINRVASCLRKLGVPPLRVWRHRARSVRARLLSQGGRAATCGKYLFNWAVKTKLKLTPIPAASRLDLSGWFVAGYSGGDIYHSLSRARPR

Which IC50 does the source give for Nc1nc2ccc(CNC(=O)Cn3nc(C(=O)O)cc3OCc3ccccc3-c3ccc(C(F)(F)F)cc3)cc2s1 [Compound 62] here?
Its IC50 is > 12.5 µM.

Which IC50 does the source give for O=C(Cn1nc(C(=O)O)cc1OCc1ccccc1-c1ccc(C(F)(F)F)cc1)NCCCc1ccccc1 [Compound 63] here?
Its IC50 is 12 µM.

With O=C(Cn1nc(C(=O)O)cc1OCc1ccsc1)N[C@H]1CCCC[C@@H]1OCc1ccccc1 [Compound 64] as the compound, how does the IC50 read?
The IC50 was > 12.5 µM.

For O=C(Cn1nc(C(=O)O)cc1OCc1cccnc1)N[C@H]1CCCC[C@@H]1OCc1ccccc1 [Compound 65, 1-[(2-benzyloxy-cyclohexylcarbamoyl)-methyl]-5-(pyridin-3-ylmethoxy)-1H-pyrazole-3-carboxylic acid], which IC50 is on record?
The IC50 was > 12.5 µM.

How did the IC50 turn out when O=C(Cn1nc(-c2nnn[nH]2)cc1OCc1ccccc1-c1ccc(C(F)(F)F)cc1)N[C@H]1CCCC[C@@H]1OCc1ccccc1 [Compound 66, N-(2-benzyloxy-cyclohexyl)-2-[3-(1H-tetrazol-5-yl)-5-(4′-trifluoromethyl-biphenyl-2-ylmethoxy)-pyrazol-1-yl]-acetamide] was run?
The IC50 was 0.057 µM.
